Consider five compounds from paper PMC8582576, “New Therapeutic Strategy for Overcoming Multidrug Resistance in Cancer Cells with Pyrazolo[3,4-d]pyrimidine Tyrosine Kinase Inhibitors” (Cancers, 2021).

For data set [1], the system named is NCI-H460/R. Briefly: MTT assay, reversal of DOX resistance in NCI-H460/R cells. To be noted: Homo sapiens, MTT, 72 h, read-out: IC50 of DOX alone. In kind it is cell-based, human. The procedure:
(§1) The metabolic activity of viable cells was measured by MTT assay. Cells grown in 25 cm^2 tissue flasks were trypsinized, seeded into flat-bottomed 96-well tissue culture plates, and incubated overnight. Subsequently, the cells were treated with increasing concentrations of Si306, pro-Si306, and dasatinib (1–25 μM), as well as with Si221 and pro-Si221 (2.5–50 μM) for 72 h. In addition, the combined effects of Si306, pro-Si306, and pro-Si221with DOX as well as with PTX were studied in NCI-H460/R and DLD1-TxR cells, respectively. In simultaneous treatments that lasted 72 h in NCI-H460/R and DLD1-TxR cells, two concentrations of Si306, pro-Si306, and pro-Si221 (0.2 μM and 0.5 μM) were combined with increasing concentrations of DOX and PTX (0.1–2 μM). After treatment, MTT was added to each well at a final concentration of 0.2 mg/mL for 3 h. Then, formazan produced in cells with intact/viable mitochondria was dissolved in 200 μL of DMSO, and the absorbance was measured at 570 nm on a Multiskan Sky Microplate Spectrophotometer (ThermoFisher Scientific, United States). The IC50 value is defined as the concentration of a drug that decreases cell viability by 50% and was calculated by nonlinear regression analysis using GraphPad Prism 6.0 for Windows (La Jolla, CA, USA). Relative reversal was calculated as a relation between the IC50 values of DOX and PTX alone obtained in NCI-H460/R and DLD1-TxR cells, respectively and the IC50 values of DOX and PTX in combination with Pro-Si306 and Pro-Si221.
(Formazan colour is commonly taken as a measure of viable cells.)

Data set [2] deals with NCI-H460/R. As to the kind of experiment: MTT cell viability assay, NCI-H460/R. The settings on record: Homo sapiens; NCI-H460/R (MDR), MTT, 72 h; read-out: Decrease in cell viability, IC50. In kind it is cell-based, human. As to the method:
as §1

The subject of a further data set is NCI-H460. Briefly: MTT cell viability assay, NCI-H460. The data set is classed as cell-based. The settings on record: Homo sapiens, 72 h, read-out: Decrease in cell viability, IC50. The procedure:
as §1

The test system of data set [3] is NCI-H460, NCI-H460/R, DLD1, DLD1-TxR. As to the kind of experiment: MTT cell viability assay, two sensitive/MDR cancer cell line pairs. In kind it is cell-based. To be noted: Homo sapiens, summary over the four cell lines, 72 h. The procedure: as §1
The target of data set [4] is T1, P-gp (Homo sapiens, UniProt P08183). Briefly: Rho 123 accumulation assay (P-gp activity) in NCI-H460/R cells. To be noted: NCI-H460/R; for P-gp inhibition by Rho 123 intracellular accumulation: 10 µM, 30-min treatment, compared with Dex-VER.
T1 sequence (P08183 whole entry): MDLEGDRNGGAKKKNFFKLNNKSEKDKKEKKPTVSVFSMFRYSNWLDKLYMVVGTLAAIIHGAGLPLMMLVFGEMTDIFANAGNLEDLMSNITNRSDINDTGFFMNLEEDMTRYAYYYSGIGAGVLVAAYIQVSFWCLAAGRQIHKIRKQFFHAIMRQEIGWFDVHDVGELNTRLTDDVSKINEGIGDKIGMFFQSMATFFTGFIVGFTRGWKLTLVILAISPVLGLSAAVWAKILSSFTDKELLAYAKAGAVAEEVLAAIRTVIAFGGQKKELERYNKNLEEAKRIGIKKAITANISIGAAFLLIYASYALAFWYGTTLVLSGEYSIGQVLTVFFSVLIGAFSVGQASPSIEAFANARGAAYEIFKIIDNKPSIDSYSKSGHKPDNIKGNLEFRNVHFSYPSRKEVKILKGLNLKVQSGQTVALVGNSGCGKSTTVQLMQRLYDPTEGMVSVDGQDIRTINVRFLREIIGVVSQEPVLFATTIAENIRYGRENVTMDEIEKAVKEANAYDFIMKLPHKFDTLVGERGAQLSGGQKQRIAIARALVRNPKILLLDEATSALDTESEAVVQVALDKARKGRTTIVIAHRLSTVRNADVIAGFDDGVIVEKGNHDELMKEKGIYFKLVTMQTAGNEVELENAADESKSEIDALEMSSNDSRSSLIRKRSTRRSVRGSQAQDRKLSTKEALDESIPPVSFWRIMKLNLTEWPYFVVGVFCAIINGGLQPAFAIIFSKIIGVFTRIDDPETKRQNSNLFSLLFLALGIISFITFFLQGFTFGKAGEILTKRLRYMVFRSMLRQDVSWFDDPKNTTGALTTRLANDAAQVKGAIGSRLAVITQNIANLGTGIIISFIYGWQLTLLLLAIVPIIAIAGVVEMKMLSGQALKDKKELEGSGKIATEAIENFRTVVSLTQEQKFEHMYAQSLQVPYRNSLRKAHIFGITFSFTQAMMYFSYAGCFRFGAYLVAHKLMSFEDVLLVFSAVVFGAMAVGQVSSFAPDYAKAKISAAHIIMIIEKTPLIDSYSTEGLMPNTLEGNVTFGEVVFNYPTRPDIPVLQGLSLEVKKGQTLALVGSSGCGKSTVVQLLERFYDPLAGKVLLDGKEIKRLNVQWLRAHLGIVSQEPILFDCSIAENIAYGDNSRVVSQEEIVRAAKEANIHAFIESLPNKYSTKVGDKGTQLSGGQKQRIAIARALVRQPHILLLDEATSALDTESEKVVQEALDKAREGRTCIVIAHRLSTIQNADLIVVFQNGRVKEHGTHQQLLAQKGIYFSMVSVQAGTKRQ
Protocol: (§3) The accumulation of fluorescent P-gp substrate Rho 123 was analyzed by flow cytometry. The intensity of fluorescence was proportional to Rho 123 accumulation in the cell. […] NCI-H460 and DLD1 cells were used as a positive control for Rho 123 accumulation. All cell lines were seeded in adherent 6-well plates and grown overnight. In simultaneous treatment that lasted 30 min, 5 μM Rho 123 was applied along with 10 μM of Si306, pro-Si306, Si221, pro-Si221, dasatinib, and Dex-VER. […] Samples were incubated for 30 min at 37 °C in 5% CO2. […] At the end of the accumulation period, the cells were trypsinized, pelleted by centrifugation, washed with PBS, and placed in ice-cold PBS. The samples were kept on ice in the dark until analysis on a CyFlow Space Partec flow cytometer (Sysmex Partec GmbH, Görlitz, Germany). The fluorescence of Rho 123 was detected on fluorescence channel 1 (FL1-H) at 530 nm. Three independent experiments were performed for each experimental setting. A minimum of 10,000 events was assayed for each sample, and the obtained results were analyzed using Summit Dako Software (ver. 4.3, Fort Collins, CO, USA).
The test system of data set [5] is DLD1-TxR. As to the kind of experiment: MTT cell viability assay, DLD1-TxR. In kind it is cell-based. The settings on record: Homo sapiens, DLD1-TxR (MDR), 72 h, read-out: Decrease in cell viability, IC50. As to the method: as §1
In another data set the test system is DLD1. Briefly: MTT cell viability assay, DLD1. In kind it is cell-based. The settings on record: Homo sapiens, DLD-1, 72 h, read-out: Decrease in cell viability, IC50. As to the method: as §1
The target in data set [6] is T1, P-gp. Briefly: Rho 123 accumulation assay (P-gp activity) in DLD1-TxR cells. To be noted: DLD1-TxR.
Protocol: as §3
In data set [7] the test system is DLD1-TxR. Briefly: MTT assay, reversal of PTX resistance in DLD1-TxR cells. In kind it is cell-based, human. The settings on record: Homo sapiens, MTT, 72 h, read-out: IC50 of PTX alone. As to the method:
as §1

Data set [8] deals with P-gp expression. As to the kind of experiment: Flow cytometric analysis of P-gp expression in NCI-H460/R cells. In kind it is cell-based, human. The settings on record: 48-h treatment, Si306, pro-Si306 5 and 10 µM, pro-Si221 1 and 2 µM, TQ 5 and 10 nM. As to the method: (§2) The P-gp expression level in NCI-H460/R and DLD1-TxR was measured by flow cytometry. […] After 48 h, cells were collected by trypsinization, washed in PBS, and then directly immuno stained by FITC-conjugated anti-P-gp antibody according to the manufacturer’s protocol.
Background: In flow cytometry, cells or beads pass a laser one at a time.

Data set [9] deals with P-gp expression. Briefly: Flow cytometric analysis of P-gp expression in DLD1-TxR cells. The data set is classed as cell-based, human. The settings on record: 48-h treatment, Si306, pro-Si306 5 and 10 µM, pro-Si221 1 and 2 µM, TQ 5 and 10 nM. The procedure:
as §2

Where [10] appears, read: IC50 for P-gp inhibition, Rho123 accumulation, 30 min, TQ values in nM (footnote a).

A value given as a limit tells only on which side of the number the result lay.

One may read the IC50 as the point on the concentration scale where inhibition reaches its midpoint.

Turning to `COc1cccc2c1C(=O)c1c(O)c3c(c(O)c1C2=O)C[C@@](O)(C(=O)CO)C[C@@H]3O[C@H]1C[C@H](N)[C@H](O)[C@H](C)O1` [DOX, doxorubicin, reference compound], the IC50 with NCI-H460/R [1] stood at 0.905 ± 0.0444 µM.
On to `Cc1nc(Nc2ncc(C(=O)Nc3c(C)cccc3Cl)s2)cc(N2CCN(CCO)CC2)n1` [Dasatinib, reference compound], for which the IC50 in the data set on NCI-H460/R [2] was 6.88 ± 0.605 µM; with NCI-H460 it was 3.93 ± 0.295 µM; in [3] it was less than 10 µM; in the data set on DLD1-TxR [5], 2.9 ± 0.223 µM; in the data set on DLD1, 3.24 ± 0.411 µM. On P-gp [4], the “P-gp inhibition by Rho 123 intracellular accumulation” value is listed as “did not show potential to inhibit P-gp”.
Turning to `Clc1ccccc1CNc1ncnc2c1cnn2CC(Cl)c1ccc(Br)cc1` (centres unmarked) [Si221], the IC50 stood at 18.1 ± 2.08 µM with NCI-H460/R [2], 14.6 ± 1.48 µM in the data set on NCI-H460, 11.6 ± 1.29 µM in the data set with DLD1-TxR [5] and 34.1 ± 2.32 µM in the data set on DLD1. Also, the “P-gp inhibition by Rho 123 intracellular accumulation” value is given as “did not modulate the activity of P-gp” at P-gp [4] and “did not modulate the activity of P-gp” at P-gp [6] (10 µM, 30-min treatment, compared with Dex-VER).
For `CC(=O)O[C@H]1C(=O)[C@@]2(C)[C@H]([C@H](OC(=O)c3ccccc3)[C@]3(O)C[C@H](OC(=O)[C@H](O)[C@@H](NC(=O)c4ccccc4)c4ccccc4)C(C)=C1C3(C)C)[C@]1(OC(C)=O)CO[C@@H]1C[C@@H]2O` [PTX, paclitaxel, reference compound], in the data set with DLD1-TxR [7], the IC50 turned out to be 1.05 ± 0.115 µM.
`COc1cc2c(cc1OC)CN(CCc1ccc(NC(=O)c3cc(OC)c(OC)cc3NC(=O)c3cnc4ccccc4c3)cc1)CC2` [TQ, tariquidar, reference compound]: the “effect on P-gp expression (protein level)” value with P-gp expression [8] and with P-gp expression [9] was “increased the expression of P-gp” each time. In addition, the values for the IC50 on P-gp [4] (setting [10]) and on P-gp [6] (setting [10]) were 1.07 ± 0.174 nM and 0.925 ± 0.155 nM, respectively. For the same compound, the “kinetics of P-gp inhibition (Rho123 accumulation)” value on P-gp [4] (24-, 48-, 96-, 168-h treatments, 10 µM pro-Si306, pro-Si221, 5 and 10 nM TQ) is listed as “reached stable P-gp inhibition after 48 h that was sustained until 168 h”; at P-gp [6] (24-, 48-, 96-, 168-h treatments, 10 µM pro-Si306, 1 and 2 µM pro-Si221, 5 and 10 nM TQ) it was “reached stable P-gp inhibition after 48 h that was sustained until 168 h”.
